We go through two compounds from patent US7604990B2, “Methods of regulating differentiation in stem cells” (ES Cell International Pte Ltd., priority 2002, dated 2009).

Holding throughout (format): cell-based, human
Assay [1] concerns hES cells. The experiment in a line: ELISA-based GCTM-2 quantification in hES cells (Example 2). Particulars: treated 2 weeks, serum-free; n=3. As for the experimental part: (§1) hES-3 cells were cultured as previously described^1. The serum-free culture medium consisted of DMEM (without sodium pyruvate, glucose 4500 mg/l, Invitrogen, Mount Waverley, VIC, Australia) supplemented with insulin/transferrin/selenium 1%, β-mercaptoethanol 0.1 mM, NEAA 1%, glutamine 2 mM, Hepes 25 mM, penicillin 50 U/ml and streptomycin […] (all from Invitrogen). Media was changed every 2 days and cells were passaged every week S1P and dihydro-S1P were obtained from Biomol (Plymouth Meeting, Pa., USA). LPA was obtained from Sigma (Castle Hill, NSW, Australia). Extemporaneous dilutions of all lipids were made in water containing 0.1% fatty acid-free bovine serum albumin (BSA) (Sigma). S1P and dihydro-S1P were used at 10 mM. Human PDGF-AB, PDGF-AA, PDGF-BB were from Prepro Tech Inc. (Rocky Hill, N.J., USA) and were used at 20 ng/ml.
Cells were fixed in 100% ethanol and immunostained with GCTM-2 followed by alkaline phosphatase-coupled secondary antibodies (Dako). Alkaline phosphatase activity was detected by adding a solution of 4-nitrophenyl phosphate (Roche), and the concentration of the reaction product was determined by reading the optical density (OD) at 405 nm. In order to validate the technique as an accurate indicator of the proportion of GCTM-2 positive cells, standard curves were carried out with the embryonal carcinoma cell line GCT27C4, known to express GCTM-2^20.

The subject of assay [2] is hES cells. The assay can be described thus: Spontaneous differentiation of hES colonies on MEF in serum-free medium, morphology (Example 2). Particulars: 2 weeks serum-free on MEF; S1P 10 μM, PDGF-AB 20 ng/ml, LPA up to 50 μM. The method, then: as §1, with “S1P and dihydro-S1P were used at 10 mM.” left out
Assay [3] concerns hES cells. The assay can be described thus: Spontaneous differentiation of hES colonies on MEF in serum-free medium, morphology (Example 1). Particulars: 8 days serum-free on MEF; S1P 10 μM, PDGF 20 ng/ml, LPA up to 50 μM. As for the experimental part: (A) hES cells grown with MEF, before the depletion of serum from the medium. (B, C, D, E) hES cells grown without serum after 8 days, in the absence (B) or in the presence of S1P (10 μM) (C), PDGF (20 ng/ml) (D), S1P (10 μM) plus PDGF (20 ng/ml) (E). (F) hES cells grown without serum, in the presence or in the absence (control) of S1P (10 μM), PDGF (20 ng/ml), S1P (10 μM) plus PDGF (20 ng/ml). In A-E, data are representative of at least 3 independent experiments. In F, data expressed as percentages of alkaline phosphatase activity in absence of serum for eight days (% of control), are the means±SEM of at least 2 independent experiments, each run in triplicate.
hES-3 cells were cultured as previously described^1. The serum-free culture medium consisted of DMEM (without sodium pyruvate, glucose 4500 mg/l, Invitrogen, Mount Waverley, VIC, Australia) supplemented with insulin/transferrin/selenium 1%, β-mercaptoethanol 0.1 mM, NEAA 1%, glutamine 2 mM, Hepes 25 mM, penicillin 50 U/ml and streptomycin […] (all from Invitrogen). Medium was changed every 2 days and cells were passaged every week. S1P and dihydro-S1P were obtained from Biomol (Plymouth Meeting, Pa., USA) and were dissolved in methanol. LPA was obtained from Sigma (Castle Hill, NSW, Australia) and was dissolved in ethanol. Extemporaneous dilutions of all lipids were made in water containing 0.1% fatty acid-free bovine serum albumin (BSA) (Sigma). Human PDGF-AB, PDGF-AA, PDGF-BB were from PreproTech Inc. (Rocky Hill, N.J., USA).

Assay [4] relates to hES cells. The assay can be described thus: GCTM-2/PCNA immunostaining cell count, dissociated hES cells without MEF and serum (Example 1). Conditions: 4 days, no MEF, no serum. The source says: (A) Quantification of the number of GCTM2+ cells. (B) Quantification of the number of PCNA+/GCTM2+ cells.
In some experiments, hES-3 cells plated onto 8-well chamber slides, with or without MEF, were fixed in ethanol or paraformaldehyde (for PDGFR) the day after plating. In others, hES-3 cells were mechanically dissociated, in order to obtain a monolayer culture and then plated onto 8-well chamber slides without MEF and were fixed in ethanol 4 days after the first treatment. Immunostaining was performed using the following antibodies: anti human PDGFR-α or PDGFR-β (R&D Systems Inc.), GCTM-2, and/or PCNA (Chemicon, Boronia, VIC, Australia), TRA-1-60, Oct-4. Nuclei were evidenced by Hoechst-33342. Slides were mounted and observed by fluorescent microscopy with a Leica microscope at ×10, ×20 and ×40. Specificity was verified by the absence of any staining in the negative controls. In some experiments, cells were counted to determine the ratio of GCTM-2 positive (GCTM2+), PCNA positive (PCNA+) and GCTM2+/PCNA+ cells within the global population.

As for PDGF, in the assay on hES cells [1], the “more GCTM2+ than the controls” value was 50.3±18.4%. Besides, the “size or morphology of hES cell colonies (spontaneous differentiation)” value in the assay with hES cells [2] is “flatter and less differentiated”. In the assay with hES cells [3], the “colony growth/morphology (spontaneous differentiation)” value was “flatter and less differentiated”. Moreover, the “proliferating rate of hES cells (PCNA+) versus control” value with hES cells [4] is given as “no statistically significant difference”. Moreover, in the assay with hES cells [4] (mechanically dissociated, S1P 10 μM, PDGF 10 ng/ml), the “cells GCTM2+” value is recorded as 53.7±13.2%.
With `CCCCCCCCCCCCC/C=C/[C@@H](O)[C@@H](N)COP(=O)(O)O` [S1P, Sphingosine-1-phosphate], the “more GCTM2+ than the controls” value with hES cells [1] was 18.0±17.0%. The “size or morphology of hES cell colonies (spontaneous differentiation)” value with hES cells [2] is “flatter and less differentiated”. For the same compound, in the assay on hES cells [3], the “colony growth/morphology (spontaneous differentiation)” value was “flatter and less differentiated”. Moreover, the “proliferating rate of hES cells (PCNA+) versus control” value with hES cells [4] is reported as “no statistically significant difference”.
